From article PMC10733463, “Berberine-microbiota interplay: orchestrating gut health through modulation of the gut microbiota and metabolic transformation into bioactive metabolites” (Frontiers in Pharmacology, 2023)

Legend:
Assay type in all cases: in vivo, Ross 308 broiler chickens
[1] = Bodyweight of broilers fed berberine-supplemented diet; conditions: 21 days post-hatch, n = 12
Text: The study was undertaken following the guidelines of the ethics committee of the Faculty of Veterinary Medicine and Bioscience Engineering, Ghent University, in accordance with the EU Directive 2010/63/EU. […] They were allotted into 4 groups, with three replicate pens per group each housing 8 chickens. The animals were not vaccinated. Water and commercial starter feed (day 1-12, FARM 1 Mash, Country's Best, […], Belgium) or grower (day 13-21, FARM 2 mash, Country's Best, […], Belgium) were provided ad libitum. […] At day 21, 4 birds per pen were weighted then euthanized by sodium pentobarbital injection for sampling. […] Additionally, ileal and caecal content samples were collected and stored at -20°C for berberine and berberine-derived metabolite quantification.

[2] = system: ileal microbiota; assay: 16S rRNA gene sequencing, microbiota composition in the ileum
[3] = system: colonic microbiota; assay: 16S rRNA gene sequencing, microbiota composition in the colon
[4] = system: caecal microbiota; assay: SCFA quantification (GC-FID) in caecal contents of chickens; conditions: high dose (1 g berberine/kg feed), 21 days; p = 0.045
Experimental: 250 mg caecal content derived from the in vivo trial were weighed and diluted 1:20 for SCFA analysis. Acetate, propionate and butyrate were quantified using the GC-FID method described by ([De […] et al., 2010]). This method involves the extraction of SCFA from samples with diethyl ether after the addition of 2-methyl hexanoic acid as an internal standard.

[5] = 0.1 g berberine/kg feed vs normal diet, 21 days, LinDA-normalized abundance
[6] = 0.1 g berberine/kg feed, 21 days
[7] = 0.5 g berberine/kg feed vs normal diet, 21 days, LinDA-normalized abundance
[8] = 0.5 g berberine/kg feed, 21 days
[9] = 1 g berberine/kg feed vs normal diet, 21 days, LinDA-normalized abundance

What does the source list for `COc1ccc2cc3[n+](cc2c1OC)CCc1cc2c(cc1-3)OCO2` [Berberine, Berberine chloride]?
Bodyweight ([1]; 0.1 g berberine/kg feed): 655 ± 76 g; Bodyweight ([1]; 0.5 g berberine/kg feed): 703 ± 115 g; Bodyweight ([1]; 1 g berberine/kg feed): 671 ± 55 g; L2 FC Cronobacter, 0.1 vs 0 [2, 5]: 0.38; L2 FC Curtobacterium, 0.1 vs 0 [2, 5]: -0.49; L2 FC Faecalibacterium, 0.1 vs 0 [2, 5]: 1.89; L2 FC Family_ Peptostreptococcaceae, 0.1 vs 0 [2, 5]: 2.07; L2 FC Glutamicibacter, 0.1 vs 0 [2, 5]: 0.33; L2 FC Lachnoclostridium 5, 0.1 vs 0 [2, 5]: 0.40; L2 FC Ralstonia, 0.1 vs 0 [2, 5]: -0.96; L2 FC Romboutsia, 0.1 vs 0 [2, 5]: 2.23; L2 FC Serratia, 0.1 vs 0 [2, 5]: 0.03; L2 FC Tyzzerella, 0.1 vs 0 [2, 5]: 0.06; L2 FC uncultured genus of Mollicutes RF39, 0.1 vs 0 [2, 5]: 0.63; L2 FC uncultured genus of Peptostreptococcaceae, 0.1 vs 0 [2, 5]: 1.99; Mean relative abundance (%) Cronobacter [2, 6]: 0.00%; Mean relative abundance (%) Curtobacterium [2, 6]: 0.01%; Mean relative abundance (%) Faecalibacterium [2, 6]: 0.02%; Mean relative abundance (%) Family_ Peptostreptococcaceae [2, 6]: 0.37%; Mean relative abundance (%) Glutamicibacter [2, 6]: 0.01%; Mean relative abundance (%) Lachnoclostridium 5 [2, 6]: 0.00%; Mean relative abundance (%) Ralstonia [2, 6]: 0.04%; Mean relative abundance (%) Romboutsia [2, 6]: 0.24%; Mean relative abundance (%) Serratia [2, 6]: 0.00%; Mean relative abundance (%) Tyzzerella [2, 6]: 0.00%; Mean relative abundance (%) uncultured genus of Mollicutes RF39 [2, 6]: 0.00%; Mean relative abundance (%) uncultured genus of Peptostreptococcaceae [2, 6]: 38.50%; Mean relative abundance of Lachnospiraceae [2, 6]: 2.54%; Mean relative abundance of Peptostreptococcaceae [2, 6]: 39.1%; Mean relative abundance of Ruminococcaceae [2, 6]: 1.35%; L2FC of LinDA-normalized abundance of Lachnospiraceae ([2]; 0.1 vs 0 g berberine/kg feed): -0.49; L2FC of LinDA-normalized abundance of Peptostreptococcaceae ([2]; 0.1 vs 0 g berberine/kg feed): 1.55; L2FC of LinDA-normalized abundance of Ruminococcaceae ([2]; 0.1 vs 0 g berberine/kg feed): 0.41; L2 FC Cronobacter, 0.5 vs 0 [2, 7]: -0.95; L2 FC Curtobacterium, 0.5 vs 0 [2, 7]: -1.50; L2 FC Faecalibacterium, 0.5 vs 0 [2, 7]: 1.01; L2 FC Family_ Peptostreptococcaceae, 0.5 vs 0 [2, 7]: -0.52; L2 FC Glutamicibacter, 0.5 vs 0 [2, 7]: -0.49; L2 FC Lachnoclostridium 5, 0.5 vs 0 [2, 7]: -0.09; L2 FC Ralstonia, 0.5 vs 0 [2, 7]: -1.95; L2 FC Romboutsia, 0.5 vs 0 [2, 7]: -0.07; L2 FC Serratia, 0.5 vs 0 [2, 7]: -0.80; L2 FC Tyzzerella, 0.5 vs 0 [2, 7]: -0.72; L2 FC uncultured genus of Mollicutes RF39, 0.5 vs 0 [2, 7]: 0.65; L2 FC uncultured genus of Peptostreptococcaceae, 0.5 vs 0 [2, 7]: -0.24; Mean relative abundance (%) Cronobacter [2, 8]: 0.00%; Mean relative abundance (%) Curtobacterium [2, 8]: 0.02%; Mean relative abundance (%) Faecalibacterium [2, 8]: 0.02%; Mean relative abundance (%) Family_ Peptostreptococcaceae [2, 8]: 0.15%; Mean relative abundance (%) Glutamicibacter [2, 8]: 0.01%; Mean relative abundance (%) Lachnoclostridium 5 [2, 8]: 0.02%; Mean relative abundance (%) Ralstonia [2, 8]: 0.05%; Mean relative abundance (%) Romboutsia [2, 8]: 0.13%; Mean relative abundance (%) Serratia [2, 8]: 0.00%; Mean relative abundance (%) Tyzzerella [2, 8]: 0.00%; Mean relative abundance (%) uncultured genus of Mollicutes RF39 [2, 8]: 0.02%; Mean relative abundance (%) uncultured genus of Peptostreptococcaceae [2, 8]: 24.63%; Mean relative abundance of Lachnospiraceae [2, 8]: 14.77%; Mean relative abundance of Peptostreptococcaceae [2, 8]: 24.91%; Mean relative abundance of Ruminococcaceae [2, 8]: 6.11%; L2FC of LinDA-normalized abundance of Lachnospiraceae ([2]; 0.5 vs 0 g berberine/kg feed): -0.17; L2FC of LinDA-normalized abundance of Peptostreptococcaceae ([2]; 0.5 vs 0 g berberine/kg feed): -0.50; L2FC of LinDA-normalized abundance of Ruminococcaceae ([2]; 0.5 vs 0 g berberine/kg feed): 0.24; L2 FC Cronobacter, 1 vs 0 [2, 9]: -3.64; L2 FC Curtobacterium, 1 vs 0 [2, 9]: -2.66; L2 FC Faecalibacterium, 1 vs 0 [2, 9]: -2.86; L2 FC Family_ Peptostreptococcaceae, 1 vs 0 [2, 9]: -7.51; L2 FC Glutamicibacter, 1 vs 0 [2, 9]: -2.76; L2 FC Lachnoclostridium 5, 1 vs 0 [2, 9]: -3.40; L2 FC Ralstonia, 1 vs 0 [2, 9]: -5.90; L2 FC Romboutsia, 1 vs 0 [2, 9]: -6.95; L2 FC Serratia, 1 vs 0 [2, 9]: -3.49; L2 FC Tyzzerella, 1 vs 0 [2, 9]: -2.59; L2 FC uncultured genus of Mollicutes RF39, 1 vs 0 [2, 9]: -3.09; L2 FC uncultured genus of Peptostreptococcaceae, 1 vs 0 [2, 9]: -9.51; Mean relative abundance (%) Cronobacter ([2]; 1 g berberine/kg feed, 21 days): 0.00%; Mean relative abundance (%) Curtobacterium ([2]; 1 g berberine/kg feed, 21 days): 0.03%; Mean relative abundance (%) Faecalibacterium ([2]; 1 g berberine/kg feed, 21 days): 0.01%; Mean relative abundance (%) Family_ Peptostreptococcaceae ([2]; 1 g berberine/kg feed, 21 days): 0.01%; Mean relative abundance (%) Glutamicibacter ([2]; 1 g berberine/kg feed, 21 days): 0.01%; Mean relative abundance (%) Lachnoclostridium 5 ([2]; 1 g berberine/kg feed, 21 days): 0.00%; Mean relative abundance (%) Ralstonia ([2]; 1 g berberine/kg feed, 21 days): 0.37%; Mean relative abundance (%) Romboutsia ([2]; 1 g berberine/kg feed, 21 days): 0.01%; Mean relative abundance (%) Serratia ([2]; 1 g berberine/kg feed, 21 days): 0.00%; Mean relative abundance (%) Tyzzerella ([2]; 1 g berberine/kg feed, 21 days): 0.01%; Mean relative abundance (%) uncultured genus of Mollicutes RF39 ([2]; 1 g berberine/kg feed, 21 days): 0.00%; Mean relative abundance (%) uncultured genus of Peptostreptococcaceae ([2]; 1 g berberine/kg feed, 21 days): 0.72%; Mean relative abundance of Lachnospiraceae ([2]; 1 g berberine/kg feed, 21 days): 26.87%; Mean relative abundance of Peptostreptococcaceae ([2]; 1 g berberine/kg feed, 21 days): 0.73%; Mean relative abundance of Ruminococcaceae ([2]; 1 g berberine/kg feed, 21 days): 8.08%; L2FC of LinDA-normalized abundance of Lachnospiraceae ([2]; 1 vs 0 g berberine/kg feed): 2.99; L2FC of LinDA-normalized abundance of Peptostreptococcaceae ([2]; 1 vs 0 g berberine/kg feed): -6.91; L2FC of LinDA-normalized abundance of Ruminococcaceae ([2]; 1 vs 0 g berberine/kg feed): 3.41; Estimated microbial diversity (Shannon index) ([2]; highest concentration (1 g/kg feed), p = 0.045): significantly increased; Abundance of phylum Tenericutes ([2]; lowest concentration (0.1 g/kg feed)): increase; L2 FC Family_ Peptostreptococcaceae, 0.1 vs 0 [3, 5]: -1.21; L2 FC GCA-900066575, 0.1 vs 0 [3, 5]: 3.13; L2 FC Lachnospiraceae UCG-010, 0.1 vs 0 [3, 5]: 2.34; L2 FC Romboutsia, 0.1 vs 0 [3, 5]: -0.31; L2 FC Ruminococcaceae UCG-014, 0.1 vs 0 [3, 5]: 5.39; L2 FC uncultured genus of Peptostreptococcaceae, 0.1 vs 0 [3, 5]: -1.31; Mean relative abundance (%) Family_ Peptostreptococcaceae [3, 6]: 0.11%; Mean relative abundance (%) GCA-900066575 [3, 6]: 0.59%; Mean relative abundance (%) Lachnospiraceae UCG-010 [3, 6]: 0.06%; Mean relative abundance (%) Romboutsia [3, 6]: 0.14%; Mean relative abundance (%) Ruminococcaceae UCG-014 [3, 6]: 3.36%; Mean relative abundance (%) uncultured genus of Peptostreptococcaceae [3, 6]: 13.82%; Mean relative abundance of Peptostreptococcaceae [3, 6]: 14.07%; L2FC of LinDA-normalized abundance of Peptostreptococcaceae ([3]; 0.1 vs 0 g berberine/kg feed): -0.79; L2 FC Family_ Peptostreptococcaceae, 0.5 vs 0 [3, 7]: -2.31; L2 FC GCA-900066575, 0.5 vs 0 [3, 7]: 1.10; L2 FC Lachnospiraceae UCG-010, 0.5 vs 0 [3, 7]: 0.64; L2 FC Romboutsia, 0.5 vs 0 [3, 7]: -1.42; L2 FC Ruminococcaceae UCG-014, 0.5 vs 0 [3, 7]: 2.59; L2 FC uncultured genus of Peptostreptococcaceae, 0.5 vs 0 [3, 7]: -1.92; Mean relative abundance (%) Family_ Peptostreptococcaceae [3, 8]: 0.13%; Mean relative abundance (%) GCA-900066575 [3, 8]: 0.53%; Mean relative abundance (%) Lachnospiraceae UCG-010 [3, 8]: 0.03%; Mean relative abundance (%) Romboutsia [3, 8]: 0.11%; Mean relative abundance (%) Ruminococcaceae UCG-014 [3, 8]: 1.19%; Mean relative abundance (%) uncultured genus of Peptostreptococcaceae [3, 8]: 15.49%; Mean relative abundance of Peptostreptococcaceae [3, 8]: 15.73%; L2FC of LinDA-normalized abundance of Peptostreptococcaceae ([3]; 0.5 vs 0 g berberine/kg feed): -0.94; L2 FC Family_ Peptostreptococcaceae, 1 vs 0 [3, 9]: -6.62; L2 FC GCA-900066575, 1 vs 0 [3, 9]: 2.34; L2 FC Lachnospiraceae UCG-010, 1 vs 0 [3, 9]: 0.99; L2 FC Romboutsia, 1 vs 0 [3, 9]: -6.45; L2 FC Ruminococcaceae UCG-014, 1 vs 0 [3, 9]: 3.32; L2 FC uncultured genus of Peptostreptococcaceae, 1 vs 0 [3, 9]: -9.04; Mean relative abundance (%) Family_ Peptostreptococcaceae ([3]; 1 g berberine/kg feed, 21 days): 0.01%; Mean relative abundance (%) GCA-900066575 ([3]; 1 g berberine/kg feed, 21 days): 0.65%; Mean relative abundance (%) Lachnospiraceae UCG-010 ([3]; 1 g berberine/kg feed, 21 days): 0.06%; Mean relative abundance (%) Romboutsia ([3]; 1 g berberine/kg feed, 21 days): 0.00%; Mean relative abundance (%) Ruminococcaceae UCG-014 ([3]; 1 g berberine/kg feed, 21 days): 1.02%; Mean relative abundance (%) uncultured genus of Peptostreptococcaceae ([3]; 1 g berberine/kg feed, 21 days): 0.50%; Mean relative abundance of Peptostreptococcaceae ([3]; 1 g berberine/kg feed, 21 days): 0.51%; L2FC of LinDA-normalized abundance of Peptostreptococcaceae ([3]; 1 vs 0 g berberine/kg feed): -8.67; Observed number of OTUs ([3]; lowest concentration (0.1 g/kg feed), p = 0.026): significantly increased; Propionate in the caecum (GC-FID) [4]: significantly increased
